{
  "source": "ChEMBL document CHEMBL1140007",
  "about": "“Structure-activity studies of phenanthroindolizidine alkaloids as potential antitumor agents” (Bioorg Med Chem Lett, 2007)",
  "key": {"[1]": {"tested_on": "HepG2", "experiment": "Cytotoxicity against HepG2 cells", "format": "functional", "settings": "Homo sapiens"}, "[2]": {"tested_on": "PANC-1", "experiment": "Cytotoxicity against PANC1 cells", "format": "functional", "settings": "Homo sapiens"}, "[3]": {"experiment": "Inhibition of NF-kappaB-mediated gene transcription in HepG2 cells by luciferase reporter gene assay", "format": "cell-based", "settings": "Homo sapiens"}, "[4]": {"experiment": "Inhibition of CRE-mediated gene transcription in HepG2 cells by luciferase reporter gene assay", "format": "cell-based", "settings": "Homo sapiens"}, "[5]": {"tested_on": "HepG2", "experiment": "Down regulation of cyclin D1 expression in HepG2 cells", "format": "functional, cell-based", "settings": "Homo sapiens"}, "[6]": {"tested_on": "Mus musculus", "experiment": "Reduction of body weight in HepG2 xenografted nude mouse at 9 mg/kg, ip after 10 days", "format": "ADME, organism-based", "set-up": "dose 9 mg/kg, route intraperitoneal; scale not given: the % may be the effect or the level left", "settings": "in vivo, 240 h"}, "[7]": {"tested_on": "Mus musculus", "experiment": "Reduction of body weight in HepG2 xenografted nude mouse at 9 mg/kg, ip after 9 days", "format": "ADME, organism-based", "set-up": "dose 9 mg/kg, route intraperitoneal; scale not given: the % may be the effect or the level left", "settings": "in vivo, 216 h"}, "[8]": {"tested_on": "HepG2", "experiment": "Antitumor activity against HepG2 cells xenografted nude mouse at 9 mg/kg, ip twice per day on every third day for four cycles", "format": "functional, organism-based", "set-up": "dose 9 mg/kg", "settings": "Homo sapiens"}},
  "note": "The source made the active and inactive calls. The rule behind the calls is not given here.",
  "data": [
    {"smiles": "COc1cc2c3c(c4ccc(O)cc4c2cc1OC)[C@H](O)[C@@H]1CCCN1C3", "note": "[TYLOPHORIDICINE E]", "values": [
      {"measurement": "GI50", "setting": "[1]", "value": "> 5000", "unit": "nM"},
      {"measurement": "GI50", "setting": "[2]", "value": "> 5000", "unit": "nM"},
      {"measurement": "IC50", "setting": "[3]", "value": "> 1000", "unit": "nM"},
      {"measurement": "IC50", "setting": "[4]", "value": "> 1000", "unit": "nM"},
      {"measurement": "Activity", "setting": "[5]", "value": "Dose-dependent effect"}
    ]},
    {"smiles": "COc1cc2c3c(c4cc(OC)c(OC)cc4c2cc1OC)[C@H](O)[C@@H]1CCCN1C3", "values": [
      {"measurement": "Activity", "setting": "[6]", "value": 15, "unit": "%"},
      {"measurement": "Activity", "setting": "[7]", "value": 15, "unit": "%"},
      {"measurement": "IC50", "setting": "[4]", "value": 1070, "unit": "nM"}
    ]},
    {"smiles": "COc1cc2c3c(c4cc(OC)c(OC)cc4c2cc1OC)[C@@H](O)[C@@H]1CCCN1C3", "values": [
      {"measurement": "IC50", "setting": "[3]", "value": 315, "unit": "nM"},
      {"measurement": "IC50", "setting": "[4]", "value": "> 300", "unit": "nM"}
    ]},
    {"smiles": "COc1ccc2c3c(c4cc(OC)c(OC)cc4c2c1)CN1CCC[C@H]1[C@@H]3O", "note": "[TYLOPHORININE]", "values": [
      {"measurement": "GI50", "setting": "[1]", "value": 20, "unit": "nM"},
      {"measurement": "GI50", "setting": "[2]", "value": 11, "unit": "nM"},
      {"measurement": "IC50", "setting": "[3]", "value": 12, "unit": "nM"},
      {"measurement": "IC50", "setting": "[4]", "value": 80, "unit": "nM"},
      {"measurement": "Activity", "setting": "[5]", "value": "Dose-dependent effect"}
    ]},
    {"smiles": "COc1ccc2c3c(c4cc(OC)c(O)cc4c2c1)CN1CCC[C@@H]1C3", "values": [
      {"measurement": "GI50", "setting": "[1]", "value": 13, "unit": "nM"},
      {"measurement": "GI50", "setting": "[2]", "value": 11, "unit": "nM"},
      {"measurement": "Activity", "setting": "[8]", "value": "inactive"},
      {"measurement": "IC50", "setting": "[3]", "value": 11, "unit": "nM"},
      {"measurement": "IC50", "setting": "[4]", "value": 135, "unit": "nM"},
      {"measurement": "Activity", "setting": "[5]", "value": "Dose-dependent effect"}
    ]},
    {"smiles": "COc1ccc2c3c(c4cc(OC)c(O)cc4c2c1)CN1CCC[C@H]1[C@H]3O", "note": "[TYLOPHORINIDINE]", "values": [
      {"measurement": "GI50", "setting": "[1]", "value": 11, "unit": "nM"},
      {"measurement": "GI50", "setting": "[2]", "value": 7, "unit": "nM"},
      {"measurement": "Activity", "setting": "[8]", "value": "Active"},
      {"measurement": "IC50", "setting": "[3]", "value": 10, "unit": "nM"},
      {"measurement": "IC50", "setting": "[4]", "value": 95, "unit": "nM"},
      {"measurement": "Activity", "setting": "[5]", "value": "Dose-dependent effect"}
    ]},
    {"smiles": "COc1ccc2c3c(c4cc(OC)c(O)cc4c2c1)C[N+]1([O-])CCC[C@H]1[C@H]3O", "note": "(some centres not stated) [TYLOPHORIDICINE C]", "values": [
      {"measurement": "GI50", "setting": "[1]", "value": 98, "unit": "nM"},
      {"measurement": "GI50", "setting": "[2]", "value": 67, "unit": "nM"},
      {"measurement": "IC50", "setting": "[3]", "value": 600, "unit": "nM"},
      {"measurement": "IC50", "setting": "[4]", "value": "> 1000", "unit": "nM"},
      {"measurement": "Activity", "setting": "[5]", "value": "Dose-dependent effect"}
    ]},
    {"smiles": "COc1ccc2c3c(c4cc(OC)c(OC)cc4c2c1)C[N+]1([O-])CCC[C@H]1[C@@H]3O", "note": "(some centres not stated) [TYLOPHORIDICINE F]", "values": [
      {"measurement": "GI50", "setting": "[1]", "value": 71, "unit": "nM"},
      {"measurement": "GI50", "setting": "[2]", "value": 63, "unit": "nM"},
      {"measurement": "IC50", "setting": "[3]", "value": 367, "unit": "nM"},
      {"measurement": "IC50", "setting": "[4]", "value": "> 1000", "unit": "nM"},
      {"measurement": "Activity", "setting": "[5]", "value": "Dose-dependent effect"}
    ]},
    {"smiles": "COc1cc2c3c(c4cc(OC)c(OC)cc4c2cc1O)CN1CCC[C@H]1[C@H]3O", "values": [
      {"measurement": "GI50", "setting": "[1]", "value": "> 600", "unit": "nM"},
      {"measurement": "IC50", "setting": "[3]", "value": 322, "unit": "nM"},
      {"measurement": "IC50", "setting": "[4]", "value": "> 300", "unit": "nM"}
    ]},
    {"smiles": "COc1cc2c(cc1OC)-c1cc(OC)c(OC)cc1C1CN3CCC[C@H]3C=C21", "note": "(some centres not stated)", "values": [
      {"measurement": "IC50", "setting": "[3]", "value": "> 300", "unit": "nM"},
      {"measurement": "IC50", "setting": "[4]", "value": "> 300", "unit": "nM"}
    ]}
  ]
}
